Where only a bound is given, the exact number is not on record here.

Sequence of human F508del CFTR (P13569 other isoform, or with tags, fused parts or gaps del F508-F508): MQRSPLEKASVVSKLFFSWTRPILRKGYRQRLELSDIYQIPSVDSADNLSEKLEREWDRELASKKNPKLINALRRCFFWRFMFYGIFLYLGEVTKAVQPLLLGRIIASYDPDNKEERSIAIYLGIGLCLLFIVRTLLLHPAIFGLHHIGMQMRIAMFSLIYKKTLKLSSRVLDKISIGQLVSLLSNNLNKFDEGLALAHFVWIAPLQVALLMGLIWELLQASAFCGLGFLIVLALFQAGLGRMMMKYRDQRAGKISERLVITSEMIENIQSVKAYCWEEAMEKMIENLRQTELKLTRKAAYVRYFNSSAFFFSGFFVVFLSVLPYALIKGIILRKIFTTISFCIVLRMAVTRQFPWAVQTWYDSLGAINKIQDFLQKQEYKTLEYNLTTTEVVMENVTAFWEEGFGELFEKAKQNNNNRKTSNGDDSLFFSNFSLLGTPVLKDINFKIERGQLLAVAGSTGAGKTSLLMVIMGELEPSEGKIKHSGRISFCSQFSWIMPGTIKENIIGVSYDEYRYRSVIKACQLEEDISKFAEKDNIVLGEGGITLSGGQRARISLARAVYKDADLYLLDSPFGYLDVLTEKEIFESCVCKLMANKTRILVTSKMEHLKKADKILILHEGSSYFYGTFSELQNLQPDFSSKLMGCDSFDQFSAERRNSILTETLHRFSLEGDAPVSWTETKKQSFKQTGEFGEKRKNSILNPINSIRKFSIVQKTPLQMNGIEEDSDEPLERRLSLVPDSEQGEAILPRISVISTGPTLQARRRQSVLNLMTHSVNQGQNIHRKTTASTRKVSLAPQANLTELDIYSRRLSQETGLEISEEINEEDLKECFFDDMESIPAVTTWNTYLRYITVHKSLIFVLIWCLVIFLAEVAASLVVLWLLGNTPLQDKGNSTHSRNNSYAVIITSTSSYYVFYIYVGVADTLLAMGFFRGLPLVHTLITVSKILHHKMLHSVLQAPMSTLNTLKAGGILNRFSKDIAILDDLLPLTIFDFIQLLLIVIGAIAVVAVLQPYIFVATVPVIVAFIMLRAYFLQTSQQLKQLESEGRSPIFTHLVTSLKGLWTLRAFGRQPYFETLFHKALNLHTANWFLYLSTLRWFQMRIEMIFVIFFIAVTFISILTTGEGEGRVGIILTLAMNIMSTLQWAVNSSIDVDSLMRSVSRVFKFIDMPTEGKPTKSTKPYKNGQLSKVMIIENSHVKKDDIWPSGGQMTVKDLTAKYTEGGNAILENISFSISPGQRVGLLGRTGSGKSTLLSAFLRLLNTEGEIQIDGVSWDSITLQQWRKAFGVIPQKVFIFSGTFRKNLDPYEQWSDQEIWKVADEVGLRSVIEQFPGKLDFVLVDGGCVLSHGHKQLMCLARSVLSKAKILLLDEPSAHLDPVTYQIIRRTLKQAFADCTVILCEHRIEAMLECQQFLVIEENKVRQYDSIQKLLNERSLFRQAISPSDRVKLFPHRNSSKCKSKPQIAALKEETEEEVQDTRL

The target of the assay is human F508del CFTR (Homo sapiens (Human), UniProt P13569, DEL508-508). The experiment in a line: CFTR-YFP High Throughput Assay (YFP halide flux, FRT cells). The format is cell-based. As to conditions: EMax normalized to the positive control; FRT cells expressing human F508del CFTR and YFP; read-out: % Efficacy. The protocol: Assays for Detecting and Measuring the Effect of Compounds on F508del-CFTR Channels CFTR-YFP Assay-CFTR Corrector Protocol:
This protocol is designed to selectively screen small molecule compounds for F508del CFTR corrector activities in the YFP (yellow fluorescent protein) flux assay. In this protocol, the cells are incubated with testing compounds for 24 hours, washed with PBS, stimulated with forskolin and a standard potentiator, and fluorescence in each plate well is measured kinetically read on a 384-well plate reader, such as the Hamamatsu FDSS-6000.
YFP fluorescence intensity values are acquired at high speed before and after iodide buffer is injected to the assay cells. Iodide enters the cells via active CFTR channels in the plasma membrane, and quenches the YFP fluorescence. The rate of fluorescence quenching is proportionate to the total CFTR activity in the cell membrane. F508del CFTR correctors increase the number of CFTR molecules in the testing cell plasma membrane, and thereby accelerate YFP quenching.
This method was initially developed for bench top plate readers (Galietta, J, Jayaraman, S and Verkman, A S. Cell-based assay for high-throughput quantitative screening of CFTR chloride transport agonists. Am. J. Physiol. Cell Physiol. (2001), 281: C173), and was adapted to the HTS format (Sui J, Cotard S, Andersen J, Zhu P, Staunton J, Lee M, Lin S. Optimization of a Yellow fluorescent protein-based iodide influx high-throughput screening assay for cystic fibrosis transmembrane conductance regulator (CFTR) modulators. Assay Drug Dev Technol. (2010), 8: 656-668).
Fisher Rat Thyroid (FRT) cells stably expressing both human F508del CFTR and a halide-sensitive yellow fluorescent protein (YFP-H148Q/I152L 25,22) (Galietta et al. Am. J. Physiol Cell Physiol 281(5), C1734, 2001) were cultured on plastic surface in Coon's modified Ham's F12 medium supplemented with FBS 10%, L-glutamine 2 mM, penicillin 100 U/ml, and streptomycin 100 μg/ml. G418 (0.75-1.0 mg/ml) and zeocin (3.2 ug/ml) were used for selection of FRT cells expressing F508del CFTR and YFP. For primary screening, FRT cells were plated into 384-well black wall, transparent bottom microtiter plates (Costar; Corning Inc.) at a cell density of 20,000-40,000 per well. Test compound was applied to the cells at varying concentrations ranging from 2 nM-40 μM in either a 2-fold or 3-fold dilution series. Cells were incubated in a cell culture incubator at 37° C. with 5% CO2 for 24-26 h. Assay plates were washed with DPBS media (Thermo, cat # SH30028.02) to remove unbound cells and compound. Stimulation media (25 μL) containing 20 μM Forskolin & 30 μM P3 [6-(Ethyl-phenyl-sulfonyl)-4-oxo-1,4-dihydro-quinoline-3-carboxylic acid 2-methoxy-benzylamide] in Hams F-12 coon's modified media was added to the plate wells and incubated at room temperature for 60-120 min. 25 μL of HEPES-PBS-I buffer (10 mM HEPES, 1 mM MgCl2, 3 mM KCl, 1 mM CaCl2, 150 mM NaI) was then added and fluorescence quench curves (Excitation 500 nm/Emission 540 nm; exposure 136 ms) were immediately recorded on an FDSS-6000 plate reader (Hamamatsu). Quench rates were derived from least squares fitting of the data as described by Sui et al (2010).
CFTR-YFP Assay-CFTR Potentiator Protocol:
This protocol is designed to selectively screen small molecule compounds for F508del CFTR potentiator activities in the YFP (yellow fluorescent protein) flux assay. Such compounds act acutely to stimulate CFTR already expressed on the membrane surface. In this protocol, the cells are incubated at 27° C. for 24 hours to homogeneously boost F508del CFTR expression in the cell membrane (low temperature correction), washed with PBS, treated with test compound, and CFTR activity is stimulated with forskolin for 1-2 hr. Measurement of ion flux is initiated by addition of iodide-containing buffer, and YFP quenching is kinetically recorded using a 384-well plate reader, such as the Hamamatsu FDSS-6000. […]
As to `Cc1nc2ccc(N(C)C(=O)Cn3nc(-c4cccc(F)c4)c4ccc(O)cc4c3=O)cc2o1` [Example 13, 2-(4-(3-fluorophenyl)-7-hydroxy-1-oxophthalazin-2(1H)-yl)-N-methyl-N-(2-methylbenzo[d]oxazol-6-yl)acetamide], the Emax was above 80%. With `CCOc1ccc2c(-c3cccc(F)c3)nn(CC(=O)N(C)c3ccc4nc(C)oc4c3)c(=O)c2c1` [Example 17, 2-(7-ethoxy-4-(3-fluorophenyl)-1-oxophthalazin-2(1H)-yl)-N-methyl-N-(2-methylbenzo[d]oxazol-6-yl)acetamide] the figure was above 80%; with `COc1ccc2c(-c3cccc(F)c3)nn(CC(=O)N(C)c3ccc4nc(C)oc4c3)c(=O)c2c1` [Example 3, 2-(4-(3-fluorophenyl)-7-methoxy-1-oxophthalazin-2(1H)-yl)-N-methyl-N-(2-methylbenzo[d]oxazol-6-yl)acetamide], 30 to 80%; with `COc1cc2c(=O)n(CC(=O)N(C)c3ccc4nc(C)oc4c3)nc(-c3cccc(Cl)c3)c2cc1Cl` [Example 11, 2-(6-chloro-4-(3-chlorophenyl)-7-methoxy-1-oxophthalazin-2(1H)-yl)-N-methyl-(2-methylbenzo[d]oxazol-6-yl)acetamide], above 80%.

Regarding `COc1ccc2c(-c3cccc(F)c3)nn(CC(=O)N(c3ccc4nc(C)oc4c3)C3CC3)c(=O)c2c1` [Example 12, N-cyclopropyl-2-(4-(3-fluorophenyl)-7-methoxy-1-oxophthalazin-2(1H)-yl)-N-(2-methylbenzo[d]oxazol-6-yl)acetamide], the Emax is above 80%. With `COc1ccc2c(-c3cccc(Cl)c3)nn(CC(=O)N(C)c3ccc4nc(C)oc4c3)c(=O)c2c1` [Example 4, 2-(4-(3-chlorophenyl)-7-methoxy-1-oxophthalazin-2(1H)-yl)-N-methyl-N-(2-methylbenzo[d]oxazol-6-yl)acetamide] the figure was above 80%; with `CCOc1cc2c(=O)n(CC(=O)N(C)c3ccc4nc(C)oc4c3)nc(-c3cccc(F)c3)c2cc1Cl` [Example 30], 30 to 80%. The result for `Cc1nc2ccc(N(C)C(=O)Cn3nc(-c4cccc(Cl)c4)c4ccc(OC5CCOCC5)cc4c3=O)cc2o1` [Example 29, 2-(4-(3-chlorophenyl)-1-oxo-7-((tetrahydro-2H-pyran-4-yl)oxy)phthalazin-2(1H)-yl)-N-methyl-N-(2-methylbenzo[d]oxazol-6-yl)acetamide] reads above 80%.

For the compound `[2H]C([2H])([2H])N(C(=O)Cn1nc(-c2cccc(Cl)c2)c2ccc(OC(C)C)cc2c1=O)c1ccc2nc(C)oc2c1` [Example 20, 2-(4-(3-chlorophenyl)-7-isopropoxy-1-oxophthalazin-2(1H)-yl)-N-(methyl-d3)-N-(2-methylbenzo[d]oxazol-6-yl)acetamide], the Emax fell in the range of 30 to 80%.
